The text below walks through data of patent US20030144174A1, “METHODS FOR IDENTIFYING COMPOUNDS USEFUL FOR THE REGULATION OF BODY WEIGHT AND ASSOCIATED CONDITIONS” (priority 1998, published 2003).

Common to all, as to assay type: in vivo, mouse
The test system of assay [1] is ob/ob mutants. Briefly: Weight gain and food intake in ob/ob mutants given leptin, MSH analog or both (Example 5, FIGS. 8 and 9). On the procedure: Leptin deficient (ob/ob) mutants show both hyperphagia and “increased metabolic efficiency” as witnessed by their ability to gain weight even when pair-fed with normal congenic controls. To determine the effects of leptin and MSH on food intake and weight gain, four sets of ob/ob mutants were treated with leptin, an MSH analog, both together, or vehicle alone. The MSH analog [Ac-Cys^4, D-Phe^7, Cys^10] α-MSH (4-13) was purchased from Peninsula Laboratories (Belmont, Calif.). Mice were treated with daily injections of 7 micrograms of each, both or neither.

Assay [2] relates to POMC homozygous mutant female mice. Briefly: Daily intraperitoneal α-MSH analog in POMC homozygous mutant mice: body weight, food intake, coat (Example 2). On the procedure: (§1) To test initially for the effect of peripheral melanocortins on weight change, we selected the stable agonist [Ac-Cys^4, D-Phe^7, Cys^10] α-MSH (4-13) (described in Cody et al., 1985, J. Med. Chem. 28, 583-588; incorporated herein by reference in its entirety). Briefly, [Ac-Cys^4,D-Phe^7, Cys^10] α-MSH (4-13) amide, having the cysteines connected by a disulfide bridge, was obtained from Peninsula Laboratories, CA. Lyophilized powder was dissolved in water at 1 mg/ml, which was diluted in PBS to 10 μg/mL. During the experiments, mice were maintained on a normal 12 h/12 h light/dark cycle with food and water ad libitum. Mice were fed standard laboratory rodent diet (#5001).
(§2) In order to see whether the α-MSH analog has an effect on food intake, we compared weight change and food intake in these mice for one week (see bars in FIGS. 4A and 4B) under MSH analog treatment and after MSH analog treatment was stopped (FIGS. 4C and 4D). During one week under MSH analog treatment mutant mice lost 0.5 g, while wildtype littermates gained 0.3 g; the food intake during this time was equivalent in both groups (20.7 g in wildtypes, and 22.7 g in mutants).
An effect of MSH could also be seen on coat pigmentation. […] Yellow coat pigmentation gradually reappeared after MSH treatment was terminated (data not shown).

The subject of assay [3] is ob/ob mutants. The experiment in a line: Core temperature of ob/ob mutants exposed to 4° C. (Example 5, FIG. 10). Particulars: 7 micrograms; 5 hours without food, then 4° C. for 65 minutes; versus vehicle treated ob/ob. On the procedure: In 1977, the decreased ability of ob/ob mutants to maintain body temperature at 4° C. was noted. This preceded the onset of obesity in these mice. In view of the evidence that MSH regulates adipocyte metabolism, the present inventors hypothesized that the low levels of circulating MSH in leptin deficient (ob/ob) mutants was responsible for the impaired thermal regulation. To test this, ob/ob mutants were injected with 7 micrograms of MSH analog or vehicle only as described above. The mice were left without food for 5 hours and then exposed to 4° C. for 65 minutes. Their core temperatures were measured periodically by transfer to a coldroom (4° C.) where core temperatures were measured using a digital thermometer fitted with a rectal probe (Atkins Technical Inc., Gainesville, Fla.). […] As the mice had no opportunity to eat between injection of the MSH analog and the cold challenge, food intake cannot be responsible for the altered thermal regulation.

The test system of assay [4] is wildtype female mice. The experiment in a line: Daily intraperitoneal α-MSH analog in wildtype littermates: body weight, food intake (Example 2). Particulars: for weight loss in wildtype littermates: 1 microgram i.p. daily, 16-day treatment. On the procedure: as §1, §2
Assay [5] has as its system wildtype mice. The experiment in a line: Weight change and food intake by diet and MSH analog treatment, wildtype mice (Example 3, Table 1). As to conditions: MSH analog i.p. 1 or 2 μg once daily. As to the method:
(§3) P values were determined by ANOVA. If the major component of weight regulation through the melanocortinergic pathway was the regulation of feeding behavior, the observed changes in body weight in POMC null mutant mice should be paralleled by a similar pattern in food uptake. This, however, was not observed (FIGS. 5B and 5D and Table 1).

Assay [6] relates to POMC null mutant mice. The experiment in a line: Weight change and food intake by diet and MSH analog treatment, POMC null mutant mice (Example 3, Table 1). On the procedure: as §3
Assay [7] relates to obese lep^ob/ob mice. The experiment in a line: Total weight change in obese lep ob/ob mice given leptin, α-MSH analog or both (Example 4, FIG. 6). Particulars: 3 μg of each compound i.p. once daily; lep ob/ob mice aged 2 months; compared to untreated controls. As to the method:
To assess a more general effect of peripheral melanocortin on adipocytes, another genetic form of obesity, in lep^ob/ob mice, was treated with the α-MSH analog. In this experiment, the mice received leptin or the α-MSH analog alone, and in combination. Briefly, obese lep^ob/ob mice at age 2 months (2 per group) received daily either: (1) 3 μg of α-MSH analog (described in Examples 2 and 3 above); (2) 3 μg of recombinant mouse leptin; (3) 3 μg of α-MSH analog and 3 μg of recombinant mouse leptin in combination; or (4) saline. The compounds were delivered intraperitoneally once daily, 1-2 hours before the onset of darkness.

Assay [8] has as its system ob/ob mutant mice (C57BL/6J-Lep^ob). The experiment in a line: Circulating MSH levels by RIA in ob/ob mutants treated with leptin (Example 5, FIG. 7). Particulars: leptin 7 microgram/day i.p., two hours after the tenth daily injection. As to the method: To test the inductive ability of leptin on circulating MSH levels, ob/ob mutants (ob/ob mutant mice (C57BL/6J-Lep^ob) and congenic controls were purchased from the Jackson Laboratory, Bar Harbor, Me.) were treated with leptin (7 microgram/day) or with vehicle alone (Murine recombinant leptin was kindly provided by Dr. A. F. Parlow through the National Hormone and Pituitary Program (NHPP); hormones were diluted to 70 micrograms per milliliter in PBS; mice were injected intraperitoneally with 0.1 mL). Two hours after the tenth daily injection, blood samples were drawn from the retro-orbital sinus and analyzed for MSH levels by RIA following the manufacturer's instructions (Peninsula Laboratories, Belmont, Calif.).

Where [9] appears, read: daily injections of 7 micrograms, ob/ob mutants.
[10] abbreviates: both genotypes on standard diet & MSH analog treatment.
[11] abbreviates: mutant mice, MSH analog i.p. 1 or 2 μg once daily.

“Also recorded” adds a separate entry of the source.

Take “[Ac-Cys^4, D-Phe^7, Cys^10] α-MSH (4-13) [MSH analog]”: the “supplementing the weight reducing effect of leptin” value in assay [1] (MSH analog together with a leptin dose sufficient to induce normal MSH levels, ob/ob mice) was “inability of peripheral MSH analog to supplement the weight reducing effect”. In addition, in assay [1] (setting [9]), the “effect on weight gain compared with effect on food intake” value is reported as “greater on weight gain than on food intake”. In addition, the weight gain result in assay [1] (setting [9]) was “effectively decreased weight gain; also recorded: decreases weight gain”. Besides, the “weight loss by 2 weeks” value is 46 % of excess weight in assay [2] (1 microgram (~1 nmol) i.p. daily, mutant female mice, listed as MSH-agonist) and “over 40 % of excess weight” in assay [2] (1 microgram (~1 nmol) i.p. daily, mutant female mice, listed as stable α-MSH agonist). Further, the “weight loss within one week” value in assay [2] (1 microgram (~1 nmol) i.p. daily, mutant female mice, within one week) is given as 38 % of excess weight. The “time until mutant mice started to gain weight after MSH injections were stopped” value in assay [2] (after the 16-day treatment ended) was “about 10 days”. In assay [2] (mice treated for two weeks), the coat pigmentation entry is “lost their yellowish tinge”. Moreover, in assay [2] (mutant mice, second week of treatment), the “weight lost during one week under MSH analog treatment” value is 0.5 g. Moreover, the “weight gained in one week after MSH analog treatment had been stopped for two weeks” value in assay [2] (mutant mice, third week after termination) was 1.7 g. The “food intake during one week under MSH analog treatment” value in assay [2] (mutants, second week of treatment) was 22.7 g; in assay [4] (wildtypes, second week of treatment), 20.7 g. For the same molecule, the “food intake in one week after MSH analog treatment had been stopped for two weeks” value in assay [2] (mutants, third week after termination) is reported as 35.7 g; in assay [4] (wildtypes, third week after termination), 24.2 g. In assay [3], the “core temperature during exposure to 4° C.” value is “maintained their core temperature much better; also recorded: increases thermal homeostasis”. Further, the “weight loss in wildtype littermates” value was “no significant weight loss” in assay [4] (listed as MSH-agonist) and “did not lose significant weight” in assay [4] (listed as stable α-MSH agonist). The “weight gained during one week under MSH analog treatment” value in assay [4] (wildtype littermates, second week of treatment) was 0.3 g. Further, in assay [4] (wildtype littermates, third week after termination), the “weight gain in one week after MSH analog treatment had been stopped for two weeks” value is 0.3 g. Also, the “food intake, standard diet v. standard diet & MSH analog treatment” value in assay [5] was “decreases food intake and ↓”; in assay [6] (setting [11]), “decreases food intake and ↓”. For the same molecule, the “weight change, standard diet v. standard diet & MSH analog treatment” value was “completely capable of maintaining their body weight constant and ←→” in assay [5]; “lose excess weight and ↓” in assay [6] (setting [11]). Besides, the “food intake, wildtype v. mutant” value in assay [6] (setting [10]) is listed as “↑”. The “weight change, wildtype v. mutant” value in assay [6] (setting [10]) is recorded as “↓”. In addition, the “total weight change over a period of 10 days” value in assay [7] is listed as “slowed weight gain by almost half”.

B1: leptin: recombinant mouse leptin, product of the ob gene; Example 5 material provided through the NHPP (protein, UniProt P41160 22-167, looked up)
Leptin: VPIQKVQDDTKTLIKTIVTRINDISHTQSVSAKQRVTGLDFIPGLHPILSLSKMDQTLAVYQQVLTSLPSQNVLQIANDLENLRDLLHLLAFSKSCSLPQTSGLQKPESLDGVLEASLYSTEVVALSRLQGSLQDILQQLDVSPEC
On to B1, for which the weight gain entry in assay [1] (setting [9]) is reported as “effectively decreased weight gain”. Besides, in assay [8], the “circulating MSH levels” value was “approached those found in normal control mice; also recorded: induces almost normal levels of circulating MSH”. Moreover, in assay [7], the “total weight change over a period of 10 days” value is “little effect on preventing further weight gain”.
